Measurements reported in PubChem BioAssay AID248 (DTP/NCI, 2004).
Several values for one entry are separate records, joined by “and”; a condition that tells them apart may be missing. Equal entries are not always repeated. Inconclusive results and toxic doses are left out. Cut-off read from the data, not from the text of the source: active = T/C of 150% or more; inactive = T/C below 125%.

Tested on: L1210 leukemia ip in BDF1 mice, survival T/C
Assay: NCI In Vivo Anticancer Drug Screen. Data for tumor model L1210 Leukemia (intraperitoneal) in B6D2F1 (BDF1) mice
Conditions: endpoint: mean survival time, higher = longer survival
Method in brief: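 Read-out is survival time, reported as the treated-group measurement over the vehicle-control measurement.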

[1] = dose: 50.0 mg/kg/injection, schedule: Q01DX009 (ip), vehicle: Klucel (hydroxypropylcellulose) (HPC)
[2] = dose: 100.0 mg/kg/injection, schedule: Q01DX009 (ip), vehicle: Klucel (hydroxypropylcellulose) (HPC)
[3] = dose: 100.0 mg/kg/injection, schedule: Q01DX001 (ip), vehicle: saline
[4] = dose: 200.0 mg/kg/injection, schedule: Q01DX001 (ip), vehicle: saline
[5] = dose: 400.0 mg/kg/injection, schedule: Q01DX001 (ip), vehicle: saline
[6] = dose: 100.0 mg/kg/injection, schedule: Q04DX002 (ip), vehicle: Klucel (hydroxypropylcellulose) (HPC)
[7] = dose: 200.0 mg/kg/injection, schedule: Q04DX002 (ip), vehicle: Klucel (hydroxypropylcellulose) (HPC)
[8] = dose: 400.0 mg/kg/injection, schedule: Q04DX002 (ip), vehicle: Klucel (hydroxypropylcellulose) (HPC)
[9] = dose: 75.0 mg/kg/injection, schedule: Q01DX001 (ip), vehicle: other
[10] = dose: 150.0 mg/kg/injection, schedule: Q01DX001 (ip), vehicle: other
[11] = dose: 300.0 mg/kg/injection, schedule: Q01DX001 (ip), vehicle: other
[12] = dose: 100.0 mg/kg/injection, schedule: Q01DX001 (ip), vehicle: carboxymethylcellulose (CMC)
[13] = dose: 200.0 mg/kg/injection, schedule: Q01DX001 (ip), vehicle: carboxymethylcellulose (CMC)
[14] = dose: 400.0 mg/kg/injection, schedule: Q01DX001 (ip), vehicle: carboxymethylcellulose (CMC)
[15] = dose: 100.0 mg/kg/injection, schedule: Q04DX003 (ip), vehicle: saline

Measured: T/C

Cc1cc(C(O)c2ccccn2)c2ccccc2n1 (configuration not stated)
inactive: [1] 102 % of control | dose: 100.0 mg/kg/injection, schedule: Q01DX001 (ip), vehicle: Klucel (hydroxypropylcellulose) (HPC) 106 % of control | [2] 96 % of control | dose: 200.0 mg/kg/injection, schedule: Q01DX001 (ip), vehicle: Klucel (hydroxypropylcellulose) (HPC) 96 % of control

CC1([N+](=O)[O-])COP(=O)(OCCc2ccccc2)OC1 (configuration not stated)
inactive: dose: 50.0 mg/kg/injection, schedule: Q01DX001 (ip), vehicle: saline 95 % of control | [3] 98 % of control | [4] 93 % of control | [5] 98 % of control

O=C(/C(=C\c1ccccc1)Oc1ccc([N+](=O)[O-])cc1)c1ccccc1
inactive: [3] 88 % of control | [4] 92 % of control | [5] 95 % of control

C=C1Sc2ccccc2N1C
inactive: dose: 6.25 mg/kg/injection, schedule: Q01DX015 (ip), vehicle: saline 97 % of control | dose: 12.5 mg/kg/injection, schedule: Q01DX015 (ip), vehicle: saline 97 % of control | dose: 25.0 mg/kg/injection, schedule: Q01DX015 (ip), vehicle: saline 95 % of control | dose: 50.0 mg/kg/injection, schedule: Q01DX015 (ip), vehicle: saline 91 % of control

CC(C)CCCC(C)C1CCC2C3CC=C4CC(OC(=O)Nc5ccc(S(=O)(=O)NC6CCCCC6)cc5)CCC4(C)C3CCC12C (configuration not stated)
inactive: dose: 100.0 mg/kg/injection, schedule: Q01DX001 (sc), vehicle: steriod suspending solution 110 % of control | dose: 200.0 mg/kg/injection, schedule: Q01DX001 (sc), vehicle: steriod suspending solution 108 % of control | dose: 400.0 mg/kg/injection, schedule: Q01DX001 (sc), vehicle: steriod suspending solution 105 % of control

O=P(NC1CCCCC1)(NC1CCCCC1)c1ccccc1
inactive: dose: 100.0 mg/kg/injection, schedule: Q04DX002 (ip), vehicle: gum acacia 104 % of control | dose: 200.0 mg/kg/injection, schedule: Q04DX002 (ip), vehicle: gum acacia 93 % of control | dose: 400.0 mg/kg/injection, schedule: Q04DX002 (ip), vehicle: gum acacia 96 % of control

C=CCSc1ccccc1C
inactive: [3] 95 % of control | [4] 95 % of control

NNC(=O)CNc1cccc(I)c1
inactive: [6] 102 % of control | [7] 95 % of control | [8] 109 % of control

CCC1(O)C(=O)OCc2c1cc(-c1ccccc1)n(C)c2=O (configuration not stated)
inactive: dose: 25.0 mg/kg/injection, schedule: Q01DX001 (ip), vehicle: other 101 % of control | dose: 50.0 mg/kg/injection, schedule: Q01DX001 (ip), vehicle: other 113 % of control | dose: 100.0 mg/kg/injection, schedule: Q01DX001 (ip), vehicle: other 101 % of control | dose: 200.0 mg/kg/injection, schedule: Q01DX001 (ip), vehicle: other 98 % of control

CCOC(=O)c1cc(Br)cc(Br)c1N/N=[N+](\C)[O-]
inactive: dose: 50.0 mg/kg/injection, schedule: Q01DX009 (ip), vehicle: saline with Tween-80 105 % of control | dose: 100.0 mg/kg/injection, schedule: Q01DX009 (ip), vehicle: saline with Tween-80 98 % of control | dose: 200.0 mg/kg/injection, schedule: Q01DX009 (ip), vehicle: saline with Tween-80 110 % of control

C=C(Cl)CN(CCCC(=O)O)c1ccccc1
inactive: dose: 100.0 mg/kg/injection, schedule: Q01DX009 (ip), vehicle: other 108 % of control | dose: 100.0 mg/kg/injection, schedule: Q04DX003 (ip), vehicle: other 98 % of control | dose: 200.0 mg/kg/injection, schedule: Q01DX009 (ip), vehicle: other 107 % of control | dose: 200.0 mg/kg/injection, schedule: Q04DX003 (ip), vehicle: other 106 % of control | dose: 400.0 mg/kg/injection, schedule: Q01DX009 (ip), vehicle: other 102 % of control | dose: 400.0 mg/kg/injection, schedule: Q04DX003 (ip), vehicle: other 108 % of control

CC(=O)Nc1ccc(NC(=O)Nc2cc([N+](=O)[O-])ccc2C)cc1
inactive: [2] 95 % of control | dose: 200.0 mg/kg/injection, schedule: Q01DX009 (ip), vehicle: Klucel (hydroxypropylcellulose) (HPC) 93 % of control | dose: 400.0 mg/kg/injection, schedule: Q01DX009 (ip), vehicle: Klucel (hydroxypropylcellulose) (HPC) 96 % of control

CN(C)C(=S)Sc1ccc([N+](=O)[O-])cc1
inactive: [9] 103 % of control | [10] 96 % of control | [11] 91 % of control

Cc1ccccc1S(=O)(=O)NSc1ccccc1[N+](=O)[O-]
inactive: [9] 101 % of control | [10] 95 % of control | [11] 95 % of control

O=[N+]([O-])c1ccc(OC(=S)Oc2ccc([N+](=O)[O-])cc2)cc1
inactive: dose: 50.0 mg/kg/injection, schedule: Q01DX001 (ip), vehicle: carboxymethylcellulose (CMC) 103 % of control | [12] 105 % of control | [13] 97 % of control | [14] 100 % of control

CCOC(=O)C(=N\Nc1ccccc1OC)/C(C)=N\NC(N)=S
inactive: dose: 75.0 mg/kg/injection, schedule: Q01DX001 (ip), vehicle: acetone 93 % of control | dose: 150.0 mg/kg/injection, schedule: Q01DX001 (ip), vehicle: acetone 90 % of control | dose: 150.0 mg/kg/injection, schedule: Q01DX001 (ip), vehicle: saline 94 % of control

O=C(NP(=O)(N1CC1)N1CC1)OCCCCCCOC(=O)NP(=O)(N1CC1)N1CC1
inactive: [12] 101 % of control | [13] 113 % of control | [14] 108 % of control

Cc1ccc(C)c(NC(=O)NC(C)(C)C)c1
inactive: [6] 105 % of control | [7] 102 % of control | [8] 117 % of control

Cc1ccc(OCC(=O)Nc2ccc3c(c2)C(=O)c2ccccc2C3=O)c(C)c1
inactive: [12] 101 % of control | [13] 98 % of control | [14] 95 % of control

CN1CC(=O)N=C1N
inactive: [3] 92 % of control | [4] 103 % of control | dose: 200.0 mg/kg/injection, schedule: Q01DX015 (ip), vehicle: saline 91 % of control | dose: 250.0 mg/kg/injection, schedule: Q#A X Z (ip), vehicle: water 109 % of control | [5] 92 % of control | dose: 400.0 mg/kg/injection, schedule: Q01DX015 (ip), vehicle: saline 121 % of control | dose: 500.0 mg/kg/injection, schedule: Q#A X Z (ip), vehicle: water 100 % of control | dose: 800.0 mg/kg/injection, schedule: Q01DX015 (ip), vehicle: saline 94 % of control | dose: 1250.0 mg/kg/injection, schedule: Q#A X Z (ip), vehicle: water 100 % of control | dose: 1600.0 mg/kg/injection, schedule: Q01DX015 (ip), vehicle: saline 100 % of control

Cc1ccc(C(=O)/C=C/N2CCN(c3ccccc3)CC2)c(C)c1
inactive: dose: 100.0 mg/kg/injection, schedule: Q04DX003 (ip), vehicle: saline with Tween-80 100 % of control | dose: 200.0 mg/kg/injection, schedule: Q04DX003 (ip), vehicle: saline with Tween-80 105 % of control | dose: 400.0 mg/kg/injection, schedule: Q04DX003 (ip), vehicle: saline with Tween-80 98 % of control

O=S(=O)(c1ccccc1)C1CC(Cl)C1 (configuration not stated)
inactive: [15] 109 % of control | dose: 200.0 mg/kg/injection, schedule: Q04DX003 (ip), vehicle: saline 98 % of control | dose: 400.0 mg/kg/injection, schedule: Q04DX003 (ip), vehicle: saline 97 % of control

C=C(C)COC(=O)Nc1cccc(OC(=O)NC)c1
inactive: dose: 100.0 mg/kg/injection, schedule: Q01DX001 (ip), vehicle: saline with Tween-80 97 % of control | dose: 200.0 mg/kg/injection, schedule: Q01DX001 (ip), vehicle: saline with Tween-80 97 % of control | dose: 400.0 mg/kg/injection, schedule: Q01DX001 (ip), vehicle: saline with Tween-80 94 % of control

C[S+](C)C
inactive: dose: 12.0 mg/kg/injection, schedule: Q01DX009 (ip), vehicle: saline 104 % of control | dose: 25.0 mg/kg/injection, schedule: Q01DX009 (ip), vehicle: saline 93 % of control and 100 % of control | dose: 25.0 mg/kg/injection, schedule: Q04DX003 (ip), vehicle: saline 93 % of control | [1] 91 % of control | dose: 50.0 mg/kg/injection, schedule: Q01DX009 (ip), vehicle: saline 100 % of control and 98 % of control | dose: 50.0 mg/kg/injection, schedule: Q04DX003 (ip), vehicle: saline 98 % of control | [3] 96 % of control | dose: 100.0 mg/kg/injection, schedule: Q01DX009 (ip), vehicle: saline 90 % of control | [15] 97 % of control and 88 % of control
